In US20110171312A1, “MODIFIED THERAPEUTIC PEPTIDES, METHODS OF THEIR PREPARATION AND USE” (Nektar Therapeutics, priority 2008, published 2011):
“And” between values parts separate entries of the source, which are not always exact repeats. Equal entries are not always repeated. “Also recorded” adds a separate entry of the source. Where two headings read alike, the source gives them in different places.

How the values were obtained:
[1] = tested on: Sprague-Dawley rats; settings: for Cmin (minimum blood glucose concentration) / Tmin (time to Cmin): 15 μg/animal; for dose adequate to reduce blood glucose to the target (40-60 mg/dl): insulin mass
Description: The first phase established a dose of the compound required to achieve a target blood glucose reduction. This target blood glucose reduction was chosen to be the minimum reduction that is clearly recognizable as different from the resting blood glucose concentration.
The second phase examined the pharmacokinetics/pharmacodynamics of the molecule when administered to rats at the selected dose over an observation time sufficient for the glucose to return to baseline.
These experiments were conducted on male adult Sprague-Dawley rats of approximately 0.30-0.40 kg. Animals were obtained pre-cannulated with a jugular vein catheter (JVC) for blood sampling and, in the case of IV administration, and additional femoral vein catheter (FVC).
Intravenous administration of compounds was made via a femoral catheter in a volume of 300 μl.
Sample Collection was performed as follows. Blood samples of approximately 0.50 mL were collected from the JVC using a 1 mL syringe at each time point. A new syringe was used for each time point along with precautions to prevent contamination and carry-over.
The glucose monitoring was conducted as follows. Approximately 20 μL of whole blood was touched to the end of the glucose test strip of 2 Glucometer Elite glucose monitors for a duplicate determination of blood glucose concentrations. If there was a discrepancy of greater than 5 mg/dl, a third reading was taken.
The sample for compound quantitation in plasma, which served as basis for the PK analysis, was collected and processed as follows. The volume of blood remaining after the glucose measurement (˜480 μL) was anticoagulated with K2 EDTA and centrifuged to recover plasma. The plasma was collected and stored at −80° C. until analysis.

[2] = tested on: Sprague-Dawley rats; assay: Dose determination and PK/PD after intratracheal instillation (Example 25); assay type: in vivo, rat; settings: for dose adequate to reach the target nadir glucose suppression: intratracheal instillation, dose ranging leg; for Cmin (minimum blood glucose concentration) / Tmin (time to Cmin): intratracheal, 180, 240, 640 μg/animal for 2K, 3K, 5K (Table 6)
Procedure: A spectrometric measurement of compound concentration was also made.
Intratracheal Instillation (IT) was conducted as follows.
Sample Collection was performed as follows.
The glucose monitoring was conducted as follows.
The experimental protocol was modified for the analysis of the acetylated compounds. This resulted from the intent to use LC/MS-MS for the quantitation of compound concentrations in plasma. This analytical technique requires a larger volume of plasma to permit concentration of the sample and achieve the requisite increase in sensitivity. […] The protocol was therefore modified to increase the number of animals by two-fold and split the samples between these two cohorts.
To explore the data further, the PK profiles after IT doses were deconvoluted using IV PK parameters using the Wagner Nelson deconvolution procedure, to generate the cumulative absorption profile (FIG. 32).

[3] = tested on: Sprague-Dawley rats
Procedure: The liquid formulation was prepared in Dulbecco's phosphate buffered saline (DPBS) for IT administration. […] The dose was administered at a fixed volume of 300 μL; as a result, dosing solutions were prepared within 2 hours of administration by dilution of the stock solution.
The lowest dose that met the criteria of achieving nadir blood glucose concentrations between approximately 40 and 60 mg/dL in the first 4 hours after compound administration was chosen for the second leg of the study.
The test system included 19 pre-cannulated (jugular vein catheter (JVC)) adult male fasted (˜15-20 hours) Sprague-Dawley rats (Hilltop Lab Animals, Inc., Scottdale, Pa.). Ten animals weighing between 0.285-0.308 kg were used for the dose-ranging leg and 9 animals weighing between 0.288-0.313 kg were used for the PK/PD leg. Prior to dosing, the rats were lightly anesthetized by inhaled Isoflurane (Abbott Laboratories, Chicago, Ill.). […] Two readings of whole blood glucose concentration (mg/dL) per time point were made using a Glucometer Elite glucose monitor (Bayer Corp., Elkhart, Ind.). […] Pharmacodynamic analysis was performed using Microsoft Office Excel 2003.

[4] = tested on: Sprague-Dawley rats; assay: Glucose depression after intravenous injection of PEG-insulins (Example 23); assay type: in vivo, rat; settings: for glucose depression (in vivo activity) in comparison to regular insulin: 20 μg/animal equivalent insulin mass (FIG. 8a)
Procedure: The API concentration in the stock solutions was determined post-dosing by UV/VIS spectroscopy. All stock solutions were prepared on the study initiation day.
Whole blood (0.5 mL) was collected from the jugular vein catheter and placed into serum separator tubes at pre-dose (2 to 0.25 hours prior to dosing) and post-dose time points. After the sample was collected, an equivalent volume of PBS was administered, the catheter lumen was filled with 100 μL of heparinized PBS, and the cannula hub was plugged with a cotton applicator tip soaked in heparinized saline.
A small amount of whole blood was placed on the glucose test strip for blood glucose determination. The remainder of the sample was separated into serum by centrifugation for 10 minutes at 13,000 rpm. The serum was drawn off into a new Eppendorf tubes. The serum samples were stored at −20° C. on dry ice until shipped, and then stored at −80° C. until analysis.
The test and control insulin-containing articles were dissolved in saline (pH 7.4) and injected as an IV bolus into Sprague-Dawley rats. Prior to administration, the rats were lightly anesthetized for approximately 3-5 minutes in a Plexiglas induction chamber by inhaled 3.0-5.0% isoflurane mixed with air. The femoral vein catheter (FVC) was used for IV drug administration and the jugular vein catheter (JVC) was used for venous blood sampling to ensure no cross-contamination occurred.
A 1 mL syringe was fitted into the cannula, and the heparinized phosphate buffered saline solution present in the catheter lumen was removed by drawing back on the syringe plunger until blood filled the hub of the syringe. The heparinized phosphate buffered saline solution and the syringe were discarded and replaced by a new 1 mL syringe containing the appropriate IV dosing volume. The IV dose was then slowly and completely administered to the animal. The cannula was immediately flushed with 300 μL of phosphate buffered saline after dose administration. Blood was withdrawn from an indwelling catheter over a three-hour period. All drug doses refer to equivalent insulin mass delivered to the animals.
This study was designed to obtain a broad sense of the activity of the compounds rather than serve as an accurate activity measurement.

[5] = tested on: rats; assay: Glucose suppression / pulmonary absorption after intratracheal administration of PEG-insulins (Example 23); assay type: in vivo, rat; settings: for glucose suppression profile compared to insulin control: 20-80 μg/animal equivalent insulin mass (FIGS. 8b, 9b, 10-12)
Description: In the sections below, an effort is made to compare PEG-insulin preparations with respect to PEG molecular weight, PEGylation site, and chemistry. However, an accurate comparison was not always possible due to the presence of multiple PEG-insulin species in the preparations. Also, it could be that observed differences are due to differences in binding affinity to the receptor rather than absorption per se.
PEGylated insulins were examined that were all derivatized in positions B1 or B29 using the same PEG active agent (SPA). The actual synthetic routes to generate specific B1 or B29 isomers were different. Data for B1-5000-PEG-Insulin, 750-lot 2-PEG-insulin and 2K-lot 2-PEG-Insulin and 750-lot 5-PEG-insulin; their respective glucose suppression curves are shown in FIGS. 10 and 8b.
The results are illustrated in FIG. 11.
The impact of acetylation with PEGylation on insulin absorption through the lungs was evaluated. Acetylated derivatives were produced at different levels of acetylation and were all PEGylated at the same position (B1) with the same MW PEG (750 Da): 750-lot A1- and 750-lot A2-PEG-insulin (details are given in Table 2). The results are illustrated in FIG. 12.

[6] = tested on: beagle dogs; settings: glucose clamp
Procedure: The glucose clamp technique involved the continuous infusion of a 50% glucose solution at a rate such that normal serum glucose values were maintained throughout the experiment (e.g., normal range is 80-100 mg/dl).
Glucagon was also infused to maintain normal serum physiologic concentrations. […] Blood was withdrawn from an indwelling catheter over a 10-hour period.

[7] = rats, IT, 80 μg/animal, Group 1
[8] = rats, IT, 160 μg/animal, Group 1
[9] = rats, IT, 200 μg/animal, Group 1
[10] = rats, IT, 270 μg/animal, Group 1
[11] = rats, IT, 270 μg/animal, Group 2 (PK/PD leg)
[12] = rats, IT, 381 μg/animal, Group 1
[13] = rats, IT, 381 μg/animal, Group 1, euthanized at 4 hr

N^αB1-{3-[methoxy(ethoxy)3K]propionyl}insulin [PEG3000-B1 Insulin]
Cmin (minimum blood glucose concentration) ([1]; rats, intravenous): 36 ± 11 mg/dL
Tmin (time to Cmin) ([1]; rats, intravenous): 24 ± 12 min
Cmin (minimum blood glucose concentration) ([1]; rats, intravenous, listed as PEG3000-B1): 36 mg/dL
dose adequate to reduce blood glucose to the target (40-60 mg/dl) ([1]; rats, intravenous): 15 μg/rat
dose adequate to reach the target nadir glucose suppression [2]: 240 μg/rat
Cmin (minimum blood glucose concentration) [2]: 45 ± 18 mg/dL
Tmin (time to Cmin) [2]: 170 ± 96 min
time up to which blood glucose is still suppressed (not back to baseline) ([2]; intratracheal, selected dose): ≥ 9 h

N^αB1-{3-[methoxy(ethoxy)2K]propionyl}insulin [PEG2000-B1 Insulin]
Cmin (minimum blood glucose concentration) ([1]; rats, intravenous): 42 ± 13 mg/dL
Tmin (time to Cmin) ([1]; rats, intravenous): 33 ± 15 min
Cmin (minimum blood glucose concentration) ([1]; rats, intravenous, listed as PEG2000-B1): 42 mg/dL
dose adequate to reduce blood glucose to the target (40-60 mg/dl) ([1]; rats, intravenous): 15 μg/rat
dose adequate to reach the target nadir glucose suppression [2]: 180 μg/rat
Cmin (minimum blood glucose concentration) [2]: 38 ± 9 mg/dL
Tmin (time to Cmin) [2]: 290 ± 171 min
time up to which blood glucose is still suppressed (not back to baseline) ([2]; intratracheal, selected dose): ≥ 9 h

di-N^αA1,N^εB29-(acetyl)-B1-{4-[methoxy(ethoxy)2K]butyryl}insulin [PEG2K-Ald-DiAc Insulin]
hypoglycemia (<20 mg/dL blood glucose concentration) ([3]; rat, in vivo): caused hypoglycemia
Cmin, individual animals [3, 7]: 78 mg/dL and 85 mg/dL
Cmin, mean [3, 7]: 81 mg/dL
Tmin, mean [3, 7]: 4.50 h
Cmin, individual animals [3, 8]: 86 mg/dL and 82 mg/dL
Cmin, mean [3, 8]: 84 mg/dL
Tmin, individual animals [3, 8]: 6 h
Tmin, mean [3, 8]: 6.00 h
Cmin, individual animals [3, 9]: 109 mg/dL and 37 mg/dL
Cmin, mean [3, 9]: 73 mg/dL
Tmin, mean [3, 9]: 3.50 h
animals in which target glucose suppression was not achieved ([3]; rats, IT, 270 μg, PK/PD leg): three out of nine
Cmin, individual animals [3, 10]: 31 mg/dL and 35 mg/dL
Cmin, mean [3, 10]: 33 mg/dL
Tmin, individual animals [3, 10]: 3 h and 8 h
Tmin, mean [3, 10]: 5.50 h
Cmin, mean [3, 11]: 52 mg/dL and 52 ± 29 mg/dL
Tmin, mean [3, 11]: 5.80 h and 5.8 ± 3.5 h
Cmin, mean [3, 12]: 20 mg/dL
Tmin, mean [3, 12]: 4.00 h
Cmin, individual animals [3, 13]: 20 mg/dL and 19^a mg/dL
Tmin, individual animals [3, 13]: 4 h
pharmacological effect on mean blood glucose versus saline (historic data) ([3]; rats, IT, 200-270 μg/animal): does have a pharmacological effect
dose selected for the PK/PD leg (nadir blood glucose about 40-60 mg/dL) ([3]; rats, IT, dose range finding leg): 270 µg

N^αB1-{3-[methoxy(ethoxy)750]propionyl}insulin [750-lot 2-PEG-insulin]
glucose depression (in vivo activity) in comparison to regular insulin [4]: smaller glucose depression in comparison to regular insulin
time at which glucose suppression reaches nadir ([5]; 80 μg insulin equivalent): 6 h
time of return of glucose to baseline ([5]; 80 μg insulin equivalent): ≥ 12 h
glucose suppression profile compared to insulin control [5]: prolonged glucose suppression profile; also recorded: prolonged systemic glucose suppression compared to the insulin control

N^εB29-{3-[methoxy(ethoxy)750]proprionyl}insulin [B29 750-lot 5-PEG-insulin]
glucose suppression profile compared to insulin control ([5]; listed as B29 750 analog): glucose depression profile similar to the control

AKZO insulin: reference compound AKZO NOBEL Human Insulin [reference compound]
time by which blood glucose was back to baseline ([1]; rats, intravenous (AKZO insulin 1-6 μg/rat; PEG-B1 insulins 15 μg/rat)): ≤ 90 min
Glucose Tmin ([1]; rats, intravenous, all doses 1-6 μg/rat): 15 min
dose adequate to reduce blood glucose to the target (40-60 mg/dl) ([1]; rats, intravenous): 3 μg/rat

N^αA1,N^εB29-{3-[methoxy(ethoxy)750]propionyl}insulin [750-lot 4-PEG-insulin]
reduction of insulin activity ([4]; 80 μg insulin/animal (FIG. 9a)): about 50%

N^αA1,N^εB29-{3-[methoxy(ethoxy)2K]propionyl}insulin [2000-PEG-insulin]
glucose depression (in vivo activity) in comparison to regular insulin [4]: deviations were significant

N^αA1,N^εB29-{3-[methoxy(ethoxy)550]propionyl}insulin [550-lot 1-PEG-insulin]
glucose suppression profile compared to insulin control [5]: much of the glucose suppression activity of insulin is restored

N^αB1-{3-[methoxy(ethoxy)5K]propionyl}insulin [PEG5000-B1 Insulin]
time by which plasma concentration falls below the limit of quantitation ([1]; rat, in vivo, iv): ≤ 6 h
Cmin (minimum blood glucose concentration) ([1]; rats, intravenous): 42 ± 9 mg/dL
Tmin (time to Cmin) ([1]; rats, intravenous): 24 ± 8 min
Cmin (minimum blood glucose concentration) ([1]; rats, intravenous, listed as PEG5000-B1): 42 mg/dL
dose adequate to reduce blood glucose to the target (40-60 mg/dl) ([1]; rats, intravenous): 15 μg/rat
glucose depression (in vivo activity) in comparison to regular insulin [4]: smaller glucose depression in comparison to regular insulin
dose adequate to reach the target nadir glucose suppression [2]: 640 μg/rat
Cmin (minimum blood glucose concentration) [2]: 37 ± 3 mg/dL
Tmin (time to Cmin) [2]: 480 ± 0 min
time to reach Cmin (Tmin) ([2]; intratracheal, selected dose): 8 h
time up to which blood glucose is still suppressed (not back to baseline) ([2]; intratracheal, selected dose): ≥ 16 h
time glucose remains below euglycemic levels ([5]; 40 μg/animal, no data beyond 6 hours): at least 6 hours
glucose suppression profile compared to insulin control [5]: little systemic glucose suppression compared to the insulin control

N^αA1,N^εB29-{3-[methoxy(ethoxy)750]propionyl}insulin [750-lot 3-PEG-insulin]
glucose suppression profile compared to insulin control [5]: prolonged systemic glucose suppression compared to the insulin control

N^εB29-{3-[methoxy(ethoxy)2K]propionyl}insulin [B29 2K-2-PEG-insulin]
infused glucose required to maintain basal levels, versus insulin alone ([6]; powder inhalation): required less infused glucose to maintain basal levels
duration for which glucose infusion was necessary ([6]; powder inhalation (FIG. 13a)): 420 min
